# In US10124065B2, “Lipids and lipid compositions for the delivery of active agents” (Novartis AG, priority 2013, dated 2018):
# Tests used:
# Format in all cases: physicochemical
# [1] = Polydispersity index (PDI) of lipid nanoparticle (dynamic light scattering)
# Protocol: Unless indicated otherwise, all PDIs referred to herein are the PDI of the fully formed nanoparticle, as measured by dynamic light scattering on a Malvern Zetasizer. The nanoparticle sample was diluted in phosphate buffered saline (PBS) so that the count rate was approximately 200-400 kcts. The data is presented in Tables 4 and 5 as a weighted average of the intensity measure.
# [2] = Particle size of lipid nanoparticle (dynamic light scattering, Malvern Zetasizer)
# Outline: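 Sizes are average diameters of fully formed nanoparticles measured by dynamic light scattering. Samples were diluted in PBS to a count rate of about 200–400 kcts. Values are intensity-weighted Z-average sizes.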
# [3] = Measurement of mRNA encapsulation (Quant-iT Ribogreen); conditions: leptin mRNA in lipid nanoparticles (cationic lipid, DSPC, cholesterol, stealth lipid)
# Protocol: All equipment and disposable supplies were certified free of RNase activity by the manufacturer or rendered RNase free by use of the RNaseZap reagent (LifeTechnologies). mRNA was encapsulated at a cationic lipid amine to mRNA phosphate (N:P) molar ratio of 4:1. Lipids (cationic lipid, DSPC, cholesterol and lipidated PEG or stealth lipid) were dissolved in ethanol. The molar ratios were […], respectively. The mixture was sonicated briefly, then gently agitated for 5 minutes and then maintained at 37° C. until use. mRNA was exchanged into citrate buffer pH 5.8-6.0 by use of Amicon Ultra-15 centrifugal concentrators, and the final concentration was adjusted to 0.5 mg/ml and held at 37° C. until use. An equal volume of lipids in ethanol, mRNA in citrate buffer, and citrate buffer alone were drawn into disposable syringes. Tubing leading from syringes containing lipids and mRNA are attached to the T junction, and tubing leading from the syringe containing citrate buffer alone was paired with the tubing exiting the T-junction over a collection vessel containing a stir bar on an active stir plate. Syringes were placed in a syringe pump set to expel contents at a flow rate of 1 ml per minute.
# The pump was activated, and the collected mRNA in lipid nanoparticles was transferred to SnakeSkin dialysis tubing (10,000 MWCO, Thermo Scientific). Material was dialyzed against RNAse- and pyrogen-free 1× phosphate buffered saline overnight at 4° C.
# Percent encapsulation of mRNA in lipid nanoparticles was determined using the Quant-iT Ribogreen RNA Assay kit (Life Technologies). The LNP-mRNA suspension was assayed in buffer (mRNA outside the particle), and buffer plus Triton X-100 detergent (total mRNA). The difference calculated was the mRNA inside the particle. A 1000 ng/mL stock from the RNA provided in the kit was prepared and used to generate a standard curve (0 ng/ml, 15.63-1000 ng/ml) in TE and TE+0.75% Triton X-100. LNP-mRNA samples in TE buffer and TE buffer+0.75% Triton X-100 were prepared with appropriate dilution so that reading was in the range of standard curve (400-2,000 fold). In a 384-well plate (Costar non-treated #3573) 0.04 ml of standard (in duplicate) or sample (in triplicate) were added per well. Ribogreen reagent was diluted 240-fold in TE buffer and added 0.06 ml per well. The contents of wells were mixed and fluorescence was measured (excitation=480 nm, emission=520 nm). Background values (no RNA) were subtracted from standard and test sample values and the concentrations of RNA were determined in the samples using the standard curves. The percent encapsulation of the sample was determined by dividing the difference in concentrations between sample+triton and sample in buffer alone by the sample+triton concentration.
# [4] = PLK1-424 siRNA LNP, Chol/DSPC/S010 45/44/9/2
# [5] = leptin mRNA lipid nanoparticles
compound,measurement,setting,value
"CCCCCCCCCCOC(=O)CCCCCCCOc1cc(CN(C)C)cc(OCCCCCCCC(=O)OCCCCCCCCCC)c1 [Example 57, didecyl 8,8′-((5-((dimethylamino)methyl)-1,3-phenylene)bis(oxy))dioctanoate]",PDI,"[1]; FVII siRNA LNP, Chol/DSPC/PEG-DMG, molar ratio 45/44/9/2",0.03
same,PDI,"[1]; FVII siRNA LNP, Chol/DSPC/S010, molar ratio 45/44/9/2",0.059
same,PDI,[1]; [4],0.038
same,PDI,[1]; [5],0.102
same,Size (nm),"[2]; FVII siRNA LNP, Chol/DSPC/PEG-DMG, molar ratio 45/44/9/2, Z-average",108.4 nm
same,Size (nm),"[2]; FVII siRNA LNP, Chol/DSPC/S010, molar ratio 45/44/9/2, Z-average",123.8 nm
same,Size (nm),[2]; [4],116.3 nm
same,Size (nm),[2]; [5],127.8 nm
same,% encapsulation,[3],96.0%
